Data published in patent publication US20210246128A1, “BICYCLE TOPOISOMERASE I INHIBITING COMPOUNDS, PROCESS FOR PREPARATION AND USE THEREOF” (Council of Scientific & Industrial Research, priority 2018, published 2021).
Like-named read-outs stand apart in the source and are kept apart here.

Assays:
[1] = Solubility assay (pH 7.4 pION buffer, UV); assay type: physicochemical; conditions: pH 7.4 buffer, 18 hours incubation
Procedure: 5 μL of 20 mM DMSO stock from the stock plate was added to the reaction deep well plate containing 495 μL of pH 7.4 pION buffer (including DMSO control) respectively and the samples were mixed and incubated for 18 hours. The plate was sealed well during the incubation process. The DMSO content in the sample was <1.0%. The concentration in deep well plates was 200 μM. 4 μL of 20 mM stock (including DMSO control) was added to 996 μL of acetonitrile to prepare the working stock plate. 75 μL of working stock was added to 75 μL of blank buffer and read on spectrophotometer as reference plate at 240 nm. At the end of the incubation period, 100 μL of sample from storage plate was vacuum filtered using a filter plate. This step wets the filters and the filtrate was discarded. Another 200 μL of the sample from deep well plate was vacuum filtered in to a new filter collection plate. 75 μL of the filtrate from the filter collection plate was transferred to a UV sample plate. 75 μL of acetonitrile was added to this UV plate. The solution was mixed and the spectrum was read using the UV spectrophotometer at 240 nm. Plates were read on spectramax using SoftMax Pro software version 5.3.

[2] = Plasma stability assay; assay type: in vitro ADME; conditions: pH 7.4, 37° C., 1 μM
Procedure: The stock solution of 10 mM of test compound in DMSO was prepared and stored at 4° C. 25 μM stock of test compound was prepared in acetonitrile: water by diluting from 10 mM stock (i.e. 2.5 μL of 10 mM stock solution was added to 997.5 μL of acetonitrile: water (50:50). The frozen plasma was thawed at room temperature and centrifuged at 1400×RCF (relative centrifugal force) 4° C., for 15 minutes. Approximately 90% of the clear supernatant fraction was transferred to a separate tube and was used for the assay.
For 0 min samples, plasma was heat inactivated at 56° C. for 45 min. To 72 μL of heat inactivated plasma, 3 μL of 25 μM test compound was added. A 25 μL aliquot of the mixture was taken and crashed with 200 μL of acetonitrile containing internal standard and further processed along with other time points. For other time point samples, final working stock of 1 μM was prepared by diluting in plasma (i.e. 8 μL of 25 μM acetonitrile:water stock was added to 192 μL of plasma). 200 μL of plasma containing the test compound was incubated for 2 hrs at 37° C. in shaker water bath with gentle shaking. 25 μL aliquot of sample at 0, 15, 30, 60 and 120 min was precipitated immediately with 200 μL of acetonitrile containing internal standard and centrifuged at 4000×RCF, 4° C. for 20 minutes. 150 μL of supernatant was diluted with 150 μL of water and analyzed on LC-MS/MS.

[3] = test system: Caco-2 cell monolayer; conditions: cited from earlier work
[4] = test system: TDP1−/− cells; assay: Cytotoxicity assay, TDP1−/−; conditions: read-out: IC50 cytotoxicity TDP1−/−
Procedure: (§1) The percent inhibition of viability for each concentration of compound was calculated with respect to the control and IC50 (μM) values were estimated. Each point corresponds to the mean±S.D of at least three experiments in duplicates. Error bars represent SD (n=3).

[5] = test system: noncancerous human embryonic kidney (HEK293) cells; assay: Cytotoxicity assay, HEK293; conditions: read-out: IC50 cytotoxicity HEK293; HEK293 (noncancerous)
[6] = test system: MCF7 cells; assay: γH2AX assay (immunofluorescence confocal microscopy); assay type: cell-based, human; conditions: after washing out from media
Procedure: Quantification of comparative ability of CPT and 18 to form DSBs was quantified after 3 hours and 5 hours by measuring γH2AX intensity per nucleus after treatment and after the removal of 18 or CPT was obtained from immunofluorescence confocal microscopy. […] But CPT-induced γH2AX have a short half-life. […] (T. Furuta. J. Biol. Chem. 2003, 278, 20303-20312).

[7] = test system: TDP1+/+ MEFs; assay: Cytotoxicity assay, TDP1+/+ MEFs; assay type: cell-based
Procedure: as §1

[8] = test system: human ovarian adenocarcinoma cell lines (NIH:OVCAR-3); assay: Cytotoxicity assay, NIH:OVCAR-3; conditions: OVCAR-3, read-out: IC50 cytotoxicity NIH:OVCAR-3
[9] = Caco-2 permeability (21 day culture of Caco-2 cell monolayer); assay type: in vitro ADME; conditions: human; for recovery at 120 min, 10 μM: Caco-2, pH 7.4, Caco-2
Procedure: 5 mL of 100 mM sodium pyruvate, 5 mL of 10× non-essential amino acids, 5 mL of penstrep were added to 100 mL of heat inactivated foetal bovine serum to 385 mL of DMEM aseptically and mixed thoroughly. One vial of Hank's balanced salt (Sigma-H1387) was dissolved in 900 mL of milli Q water; adjusted the pH to 7.4 and made up the volume to 1000 mL with the same. The solution was filter sterilized and stored at 4° C. Stock solution of test compound (10 mM) was prepared in DMSO. 10 mM stock was diluted with HBSS Buffer to a final concentration of 10 μM.
250 μL of DMEM was added to the basal compartment of 96 well multi-screen Caco-2 plate and seeded 12000 cells/well (0.16×10^6 cells/ml) in all the apical wells required and one well with only media as blank without cells, placed the Caco-2 plate in CO2 incubator at 37° C. for proliferation of cells.
On the day of assay, medium was removed and washed twice with HBSS Buffer and incubated with HBSS buffer for 30 min in an incubator and wells with TEER values >230 ohm·cm^2 were selected for the incubation. 75 μL of test compound was added to apical wells and 250 μL of HBSS buffer with 2% BSA was added to basal wells. 25 μL of basal samples was collected at 120 min and processed as stated below.
250 μL of test compound was added to basal wells and 75 μL of HBSS buffer with 2% BSA was added to apical wells. 25 μL of apical samples was collected at 120 min and processed as stated below.
Single point calibration curve in HBSS buffer with 2% BSA was used. Donor samples were diluted 1:1 with HBSS containing 2% BSA and receiver samples were diluted with 1.1 HBSS buffer and precipitated with 200 μL of acetonitrile containing internal standard and vortexed for 5 min @ 1000 rpm, centrifuged at 4000 rpm for 10 min. Finally 100 μL of supernatant was diluted with 200 μL of water and submitted for LC-MS/MS analysis.

[10] = Cytotoxicity assay, HEK293; conditions: human
[11] = test system: calf thymus (CT) DNA; assay: Ethidium bromide (EtBr) displacement assay; assay type: binding; conditions: 1 μM EtBr, 5 nM CT DNA, 0-200 μM compound
[12] = test system: human colon carcinoma cell lines (HCT116); assay: Cytotoxicity assay, HCT116; conditions: HCT-116, read-out: IC50 cytotoxicity HCT116
[13] = Lipophilicity assay (octanol/buffer Log D); conditions: octanol / sodium phosphate buffer pH 7.4

CC[C@@]1(O)C(=O)OCc2c1cc1n(c2=O)Cc2cc3ccccc3nc2-1 [Camptothecin, reference compound]
Avg. Solubility (μg/mL) at pH 7.4 [1]: 2.5 μg/mL | Mean % remaining at 2 hrs in human Plasma [2]: 15.70% | Papp Apical to Basal [3]: 10.5 10^−6 cm/sec | Papp Basal to Apical [3]: 35.8 10^−6 cm/sec | IC50 ([4]; TDP1−/−): 1570 ± 210 nM | IC50 [5]: 8750 ± 630 nM | persistence of γH2AX foci / DSBs after removal of drug [6]: faster disappearance of γH2AX foci | IC50 [7]: 2800 ± 470 nM

COc1ccc(-c2ccc3ncc(-c4nnco4)c(NCCCn4ccnc4)c3c2)cc1 [Compound 18, N-(3-(1H-imidazol-1-yl)propyl)-6-(4-methoxyphenyl)-3-(1,3,4-oxadiazol-2-yl)quinolin-4-amine]
IC50 [8]: 2350 nM | Mean % remaining at 2 hrs in human Plasma [2]: 93.34% | recovery at 120 min, 10 μM ([9]; read-out: A to B % Recovery): 33.2% | recovery at 120 min, 10 μM ([9]; read-out: B to A % Recovery): 44.2% | Papp A→B at 120 min, 10 μM ([9]; pH 7.4, Caco-2, 10 μM, 120 min, read-out: Papp Apical to Basal): 7.42 ×10⁻⁶ cm/s | Papp B→A at 120 min, 10 μM ([9]; pH 7.4, Caco-2, 10 μM, 120 min, read-out: Papp Basal to Apical): 11.6 ×10⁻⁶ cm/s | IC50 [4]: 1020 nM | IC50 [10]: 8340 nM | displacement of bound EtBr (DNA intercalation) [11]: no displacement of fluorophore even at high concentration (200 μM) | persistence of γH2AX foci / DSBs after removal of drug [6]: persistent and less reversible DNA double-strand breaks (DSBs) | IC50 [12]: 2340 nM | Log D @ pH 7.40 Mean [13]: 2.48
